From patent US20230240953A1, “AN ANTIMICROBIAL COMPOSITION, PROCESS FOR PREPARING THE SAME AND METHOD OF USE THEREOF” (ISP INVESTMENTS LLC, priority 2020, published 2023) come the findings set out here.

In brackets after ≈: the same amount, converted by molar mass. Bounds are passed on as bounds.

Holding throughout (assay type): cell-based
Test [1] concerns Aspergillus brasiliensis 16404. Nature of the test: Minimal inhibitory concentration (MIC), microplate broth dilution. As to conditions: YMB, 10^5 cfu/ml, 4-5 days at 28° C., read-out: Minimal Inhibitory Concentrations (MICs) mean values, A. brasiliensis. The procedure:
(§1) Briefly, each active was dissolved and then serially diluted in DMSO using a 96-well dilution microplate. Automated liquid handler was then used to stamp multiple assay plates out of this dilution plate. The appropriate growth medium containing a desired microorganism was then added to each well of the plate. For bacterial strains, Trypticase Soy Broth (TSB) was used with the final cell density of the microorganisms, in each well, being 10^6 cfu/ml. For fungal strains, Yeast Malt Broth (YMB) was used with the final density of each microorganism being 10^5 cfu/ml. Bacterial plates were incubated for 48 hours at 35° C. and fungal plates were incubated for 4-5 days at 28° C. prior to being evaluated. The lowest concentration of each compound to inhibit any visible growth was defined as minimum inhibitory concentration (MIC). In some cases, the highest tested concentration of the active was limited by its solubility in water. Whenever MIC was greater than the highest tested concentration, it was reported as being equal to, or greater than (>) the previous hypothetical dilution.
For orientation: Broth dilution looks for growth in wells or tubes with falling amounts of substance.

Test [2] has as its system Burkholderia cepacia 25416. The test is described as above. As to conditions: TSB, 10^6 cfu/ml, 48 hours at 35° C., read-out: Minimal Inhibitory Concentrations (MICs) mean values, B. cepacia. The procedure: as §1
Test [3] concerns Candida albicans 10231. Described as above. As to conditions: YMB, 10^5 cfu/ml, 4-5 days at 28° C., read-out: Minimal Inhibitory Concentrations (MICs) mean values, C. albicans. The method, then:
as §1

For test [4], the system named is Escherichia coli 8739. Described as above. As to conditions: TSB, 10^6 cfu/ml, 48 hours at 35° C., read-out: Minimal Inhibitory Concentrations (MICs) mean values, E. coli. The method, then:
as §1

The subject of test [5] is Pseudomonas aeruginosa 9027. The test is described as above. As to conditions: TSB, 10^6 cfu/ml, 48 hours at 35° C., read-out: Minimal Inhibitory Concentrations (MICs) mean values, P. aeruginosa. The method, then:
as §1

In test [6] the test system is Staphylococcus aureus 6538. Described as above. The note with it: TSB, 10^6 cfu/ml, 48 hours at 35° C., read-out: Minimal Inhibitory Concentrations (MICs) mean values, S. aureus. The procedure:
as §1

In test [7] the test system is Aspergillus brasiliensis 16404. The test is described as follows: Checkerboard microplate synergy assay, compound A = HPB. The arrangement: key to SI index (Synergy Index = Qa/QA+Qb/QB): SI = Qa/QA + Qb/QB (MICs in ppm); <1 synergy, =1 additive, >1 antagonism. As to conditions: for Interaction / SI index (Synergy Index = Qa/QA+Qb/QB): HPB + compound B. The procedure: (§2) The synergistic antimicrobial effect was determined using a commonly accepted method described by Kull A. C, Eisman, P. C. Sylwestrowicz, H. D. and Mayer, R. L. 1961. Applied Microbiology, 9:538-541
(§3) Briefly, the standard checkerboard approach was used to make all the dilutions. HPB (compound A) solution was prepared and then serially diluted in DMSO using the 96-well dilution plate. Automated liquid handler was then used to stamp multiple assay plates using this dilution plate. Each well of the assay plate was then supplemented with a predetermined concentration of the second antimicrobial (compound B). The final concentration of DMSO was kept constant across the plate for each assay, not exceeding 3% (w/w).
To evaluate antifungal activity of the actives, freshly prepared A. brasiliensis spores were harvested and resuspended in Yeast and Malt Broth (YMB). The spore suspension was then added to the appropriate plates with the final density being 10^5 cfu/ml.
(§4) To evaluate antibacterial activity of the actives, freshly prepared S. aureus and B. cepacia cells were harvested and resuspended in Trypticase Soy Broth (TSB). The cell suspension was then added to the wells of the appropriate plates with the final cell density being 10^6 cfu/ml. Fungal plates were incubated at 28° C. for 4-5 days, prior to being evaluated. Bacterial plates were incubated for 48 hours at 35° C. prior to being evaluated.
(§5) Synergy Index (SI)=Qa/QA+Qb/QB • Qa is the MIC of compound A (HPB) in ppm, when compound A is being used in combination with compound B • QA is the MIC of compound A (HPB) in ppm, acting alone • Qb is the MIC of compound B in ppm, when the compound B is being used in combination with compound A • QB is the MIC of compound B in ppm, acting alone Each ratio Qa/QA and Qb/QB is sometimes referred to as Fractional Inhibitory Concentrations (FICs) of compounds A and B, respectively, when these two compounds are being used in combination with one another. The sum of FICs constitute the Synergy Index (SI). The synergistic effect is indicated if the Synergy Index is below one (SI<1). An additive effect is indicated if the Synergy Index is equal to one (SI=1). An antagonistic effect is indicated if synergy index is greater than one (SI>1). The lower the SI index the greater the synergy.

The test system of test [8] is Burkholderia cepacia 25416. Described as above. The note with it: for Interaction / SI index (Synergy Index = Qa/QA+Qb/QB): HPB + compound B. The procedure: as §2, §3, §4, §5
Test [9] concerns Staphylococcus aureus 6538. The test is described as above. The note with it: for Interaction / SI index (Synergy Index = Qa/QA+Qb/QB): HPB + compound B. The procedure:
as §2, §3, §4, §5

The mark [10] stands for this setting: Aspergillus brasiliensis, 16404, compound B alone, read-out: Compound B (Qb): MIC of compound B acting alone.

In the case of `CC(=O)/C=C/c1ccc(O)cc1` [4-Hydroxybenzylideneacetone, (E)-4-(4-hydroxyphenyl)but-3-en-2-one], the MIC in test [1] came to 1000 µg/mL (≈ 6.17 mM); in [2], 1000 µg/mL (≈ 6.17 mM); in [3] it was 500 µg/mL (≈ 3.08 mM); in [4] it was 2000 µg/mL (≈ 12.3 mM); in test [5], 4000 µg/mL (≈ 24.7 mM); in test [6] it was 500 µg/mL (≈ 3.08 mM).
Turning to `COc1ccc(CCC(C)=O)cc1` [Raspberry ketone methyl ether, 4-(4-methoxyphenyl)butan-2-one], the MIC was found to be 1000 µg/mL (≈ 5.61 mM) in [1]; 1000 µg/mL (≈ 5.61 mM) in [2]; 2000 µg/mL (≈ 11.2 mM) in [3]; 2000 µg/mL (≈ 11.2 mM) in [4]; 4000 µg/mL (≈ 22.4 mM) in test [5]; 28000 µg/mL (≈ 157 mM) in [6].
As to `CC(=O)CCc1ccc(O)cc1` [Raspberry ketone, 4-(4-hydroxyphenyl) butan-2-one], the MIC turned out to be 4000 µg/mL (≈ 24.4 mM) in test [1]; 2000 µg/mL (≈ 12.2 mM) in [2]; 4000 µg/mL (≈ 24.4 mM) in [3]; 4000 µg/mL (≈ 24.4 mM) in [4]; 4000 µg/mL (≈ 24.4 mM) in [5]; 28000 µg/mL (≈ 171 mM) in test [6]. Moreover, the MIC in test [7] (Aspergillus brasiliensis, 16404, HPB alone, read-out: HPB (QA): MIC of HPB acting alone) is 4000 µg/mL; in [8] (Burkholderia cepacia, 25416, B. cepacia, HPB alone, read-out: HPB (QA): MIC of HPB acting alone), 2000 µg/mL; in [9] (Staphylococcus aureus, 6538, S. aureus, HPB alone, read-out: HPB (QA): MIC of HPB acting alone), not below 8000 µg/mL.
As to `CCCCCCCCCCCCCC[N+](C)(C)C.[Br-]` [Tetradecyl trimethyl ammonium bromide], the MIC in test [7] (setting [10]) was 25 µg/mL; in [8] (Burkholderia cepacia, 25416, B. cepacia, compound B alone, read-out: Compound B (Qb): MIC of compound B acting alone) it was 50 µg/mL; in [9] (Staphylococcus aureus, 6538, S. aureus, compound B alone, read-out: Compound B (QB): MIC of compound B acting alone) it was 1.6 µg/mL. Moreover, the Interaction result in test [7] is reported as “Synergistic (The synergistic effect is indicated if the Synergy Index is below one (SI<1))”; in test [8] (B. cepacia) it was “synergistic”; in test [9] (S. aureus), “synergistic”. Moreover, the “SI index (Synergy Index = Qa/QA+Qb/QB)” value in test [7] is listed as 0.375; in [8] (B. cepacia), 0.625; in test [9] (S. aureus), not above 0.5. Further, the entries for the “Compound B (Qb): MIC of compound B when used in combination with HPB” value in test [7], in test [8] (B. cepacia) and in test [9] (S. aureus) were 3.1 ppm, 6.3 ppm and 0.4 ppm, respectively.
With `COc1ccc(C=O)cc1OC` [Veratraldehyde], the MIC in [7] (setting [10]) was 2000 µg/mL; in test [8] (Burkholderia cepacia, 25416, read-out: Compound B (Qb): MIC of compound B acting alone), 2000 µg/mL; in test [9] (Staphylococcus aureus, 6538, read-out: Compound B (QB): MIC of compound B acting alone), not below 8000 µg/mL. Besides, the results for the Interaction result in test [7], in [8] (B. cepacia) and in test [9] (S. aureus) were “Synergistic (The synergistic effect is indicated if the Synergy Index is below one (SI<1))”, “synergistic” and “synergistic”, respectively. Besides, the “SI index (Synergy Index = Qa/QA+Qb/QB)” value in test [7] is given as 0.625; in test [8] (B. cepacia), 0.75; in test [9] (S. aureus), not above 0.625. In addition, the “Compound B (Qb): MIC of compound B when used in combination with HPB” value in test [7] was 1,000 ppm; in [8] (B. cepacia) it was 1000 ppm; in test [9] (S. aureus), 1,000 ppm.
